Data taken from patent US9029370B2, “Substituted benzamide derivatives” (Hoffmann-La Roche Inc., priority 2011, dated 2015).
Counter-ions that a name gives are not always drawn.

Assays:
rat TAAR1 = rat TAAR1 (Rattus norvegicus (Rat), UniProt Q923Y9); assay: Radioligand binding assay on rat TAAR1; settings: rat TAAR1, HEK-293 membranes; second value of the pair (line below); read-out: Ki (μM) mouse/rat
Method: (§1) For the construction of expression plasmids the coding sequences of human, rat and mouse TAAR 1 were amplified from genomic DNA essentially as described by Lindemann et al.. The Expand High Fidelity PCR System (Roche Diagnostics) was used with 1.5 mM Mg^2+ and purified PCR products were cloned into pCR2.1-TOPO cloning vector (Invitrogen) following the instructions of the manufacturer. PCR products were subcloned into the pIRESneo2 vector (BD Clontech, Palo Alto, Calif.), and expression vectors were sequence verified before introduction in cell lines.
(§2) HEK293 cells (ATCC # CRL-1573) were cultured essentially as described by Lindemann et al. (2005). For the generation of stably transfected cell lines HEK293 cells were transfected with the pIRESneo2 expression plasmids containing the TAAR coding sequences (described above) with Lipofectamine 2000 (Invitrogen) according to the instructions of the manufacturer, and 24 hrs post transfection the culture medium was supplemented with 1 mg/ml G418 (Sigma, Buchs, Switzerland). After a culture period of about 10 d clones were isolated, expanded and tested for responsiveness to trace amines (all compounds purchased from Sigma) with the cAMP Biotrak Enzyme immunoassay (EIA) System (Amersham) following the non-acetylation EIA procedure provided by the manufacturer.
Radioligand Binding Assay on Rat TAAR1
(§3) Membrane Preparation and Radioligand Binding.
(§4) HEK-293 cells stably expressing rat TAAR1 were maintained at 37° C. and 5% CO2 in DMEM high glucose medium, containing fetal calf serum (10%, heat inactivated for 30 min at 56° C.), penicillin/streptomycin (1%), and 375 μg/ml geneticin (Gibco). Cells were released from culture flasks using trypsin/EDTA, harvested, washed twice with ice-cold PBS (without Ca^2+ and Mg^2+), pelleted at 1′000 rpm for 5 min at 4° C., frozen and stored at −80° C. […] The homogenate was centrifuged at 48′000×g for 30 min at 4° C. Subsequently, the supernatant was removed and discarded, and the pellet resuspended in 20 ml HEPES-NaOH (20 mM, pH 7.4) containing 0.1 mM EDTA using the Polytron (20 s at 14′000 rpm). This procedure was repeated and the final pellet resuspended in HEPES-NaOH containing 0.1 mM EDTA and homogenized using the Polytron. Typically, aliquots of 2 ml membrane portions were stored at −80° C. With each new membrane batch the dissociation constant (Kd) was determined via a saturation curve. […] Nonspecific binding was defined as the amount of ^3[H]-(S)-4-[(ethyl-phenyl-amino)-methyl]-4,5-dihydro-oxazol-2-ylamine bound in the presence of 10 μM unlabeled ligand. All compounds were tested at a broad range of concentrations (10 pM to 10 μM) in duplicates. […] The 96 deep well plates were incubated for 1 hr at 4° C. Incubations were terminated by rapid filtration through Unifilter-96 plates (Packard Instrument Company) and glass filters GF/C (Perkin Elmer) presoaked for 1 hr in polyethylenimine (0.3%) and washed 3 times with 1 ml of cold binding buffer. After addition of 45 μl of Microscint 40 (PerkinElmer) the Unifilter-96 plate was sealed and after 1 hr the ratioactivity counted using a TopCount Microplate Scintillation Counter (Packard Instrument Company).

mouse TAAR1 = mouse TAAR1 (Mus musculus (Mouse), UniProt Q923Y8); assay: Radioligand binding assay on mouse TAAR1; settings: mouse TAAR1, HEK-293 membranes; first value of the pair (before the slash); read-out: Ki (μM) mouse/rat
Method: as §1, §2
Radioligand Binding Assay on Mouse TAAR1
as §3
as §4, with “expressing mouse” for “expressing rat”

Sequence of rat TAAR1 (Q923Y9 whole entry): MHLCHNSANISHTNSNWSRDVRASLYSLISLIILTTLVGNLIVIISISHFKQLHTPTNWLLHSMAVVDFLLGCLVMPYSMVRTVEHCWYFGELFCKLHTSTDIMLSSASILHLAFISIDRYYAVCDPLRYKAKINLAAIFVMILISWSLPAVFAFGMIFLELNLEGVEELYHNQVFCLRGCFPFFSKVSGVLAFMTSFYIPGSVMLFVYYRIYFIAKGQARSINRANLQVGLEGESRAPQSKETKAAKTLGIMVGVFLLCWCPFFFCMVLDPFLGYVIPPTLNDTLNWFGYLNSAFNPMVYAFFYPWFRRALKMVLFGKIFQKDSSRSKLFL
Sequence of mouse TAAR1 (Q923Y8 whole entry): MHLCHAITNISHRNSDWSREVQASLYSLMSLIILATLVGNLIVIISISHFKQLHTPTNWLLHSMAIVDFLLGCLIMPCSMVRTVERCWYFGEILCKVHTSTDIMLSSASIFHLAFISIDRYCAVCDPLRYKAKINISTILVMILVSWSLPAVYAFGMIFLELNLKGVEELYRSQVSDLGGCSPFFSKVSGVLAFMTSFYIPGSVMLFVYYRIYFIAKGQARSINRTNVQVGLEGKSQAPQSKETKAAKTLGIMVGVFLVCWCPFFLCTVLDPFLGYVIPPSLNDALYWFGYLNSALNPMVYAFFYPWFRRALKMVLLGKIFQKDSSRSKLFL

| Compound | Ki (rat TAAR1) | Ki (mouse TAAR1) |
| --- | --- | --- |
| N#Cc1cc(NC(=O)Nc2ccc([C@@H]3CNCCO3)cc2F)ccc1F [Example 63, (R)-1-(3-Cyano-4-fluorophenyl)-3-(2-fluoro-4-(morpholin-2-yl)phenyl)urea] | 0.0007 µM | 0.0014 µM |
| O=C(Nc1ccc(Cl)cn1)Nc1ccc([C@H]2CNCCO2)cc1Cl [Example 64, (S)-1-(2-Chloro-4-(morpholin-2-yl)phenyl)-3-(5-chloropyridin-2-yl)urea] | 0.003 µM | 0.0015 µM |
| N#Cc1ccc(NC(=O)Nc2ccc([C@@H]3CNCCO3)cc2Br)cn1 [Example 65, (R)-1-(2-bromo-4-(morpholin-2-yl)phenyl)-3-(6-cyanopyridin-3-yl)urea] | 0.0218 µM | 0.0037 µM |
| N#Cc1ccc(NC(=O)Nc2ccc([C@H]3CNCCO3)cc2Br)cn1 [Example 66, (S)-1-(2-bromo-4-(morpholin-2-yl)phenyl)-3-(6-cyanopyridin-3-yl)urea] | 0.0161 µM | 0.0033 µM |
| O=C(Nc1cnc(C(F)(F)F)nc1)Nc1ccc([C@H]2CNCCO2)cc1Br [Example 69, 1-((S)-2-Bromo-4-morpholin-2-yl-phenyl)-3-(2-trifluoromethyl-pyrimidin-5-yl)-urea] | 0.018 µM | 0.0086 µM |
| O=C(Nc1cnc(C(F)(F)F)nc1)Nc1ccc([C@@H]2CNCCO2)cc1Br [Example 70, 1-((R)-2-Bromo-4-morpholin-2-yl-phenyl)-3-(2-trifluoromethyl-pyrimidin-5-yl)-urea] | 0.0103 µM | 0.0056 µM |
| N#Cc1ccc(OC(F)F)c(NC(=O)Nc2ccc([C@H]3CNCCO3)cc2F)c1 [Example 71, 1-(5-Cyano-2-difluoromethoxy-phenyl)-3-((S)-2-fluoro-4-morpholin-2-yl-phenyl)-urea hydrochloride] | 0.0012 µM | 0.0018 µM |
| N#Cc1ccc(OC(F)F)c(NC(=O)Nc2ccc([C@@H]3CNCCO3)cc2F)c1 [Example 72, 1-(5-Cyano-2-difluoromethoxy-phenyl)-3-((R)-2-fluoro-4-morpholin-2-yl-phenyl)-urea hydrochloride] | 0.001 µM | 0.0019 µM |
| O=C(Nc1ccc([C@H]2CNCCO2)cc1F)c1cnn(-c2cccc(OC(F)F)c2)c1 [Example 75, (S)-1-(3-(Difluoromethoxy)phenyl)-N-(2-fluoro-4-(morpholin-2-yl)phenyl)-1H-pyrazole-4-carboxamide] | 0.0011 µM | 0.0014 µM |
| O=C(Nc1ccc([C@H]2CNCCO2)cc1F)c1cnn(-c2ccc(OC(F)F)cc2)c1 [Example 76, (S)-1-(4-(Difluoromethoxy)phenyl)-N-(2-fluoro-4-(morpholin-2-yl)phenyl)-1H-pyrazole-4-carboxamide] | 0.0018 µM | 0.0016 µM |
| O=C(NCc1cccc(OC(F)F)c1)Nc1ccc([C@@H]2CNCCO2)cc1F [Example 77, (R)-1-(3-(Difluoromethoxy)benzyl)-3-(2-fluoro-4-(morpholin-2-yl)phenyl)urea] | 0.0064 µM | 0.001 µM |
| O=C(NCc1cccc(OC(F)F)c1)Nc1ccc([C@H]2CNCCO2)cc1F [Example 78, (S)-1-(3-(Difluoromethoxy)benzyl)-3-(2-fluoro-4-(morpholin-2-yl)phenyl)urea] | 0.0039 µM | 0.0012 µM |
| N#Cc1ccnc(C(=O)Nc2ccc([C@H]3CNCCO3)cc2F)c1 [Example 79, (S)-4-Cyano-N-(2-fluoro-4-(morpholin-2-yl)phenyl)picolinamide hydrochloride] | 0.196 µM | 0.0022 µM |
| O=C(Nc1ccc([C@H]2CNCCO2)cc1F)c1cnn(-c2ccc3c(c2)OC(F)(F)O3)c1 [Example 82, (S)-1-(2,2-Difluorobenzo[d][1,3]dioxol-5-yl)-N-(2-fluoro-4-(morpholin-2-yl)phenyl)-1H-pyrazole-4-carboxamide] | 0.0016 µM | 0.0013 µM |
| O=C(Nc1ccc([C@@H]2CNCCO2)c(F)c1)c1ccnc(C(F)(F)F)c1 [Example 83, (R)—N-(3-Fluoro-4-(morpholin-2-yl)phenyl)-2-(trifluoromethyl)isonicotinamide hydrochloride] | 0.0075 µM | 0.006 µM |
| CCOc1cc(C(=O)Nc2ccc([C@@H]3CNCCO3)c(F)c2)ccn1 [Example 84, (R)-2-Ethoxy-N-(3-fluoro-4-(morpholin-2-yl)phenyl)isonicotinamide hydrochloride] | 0.0047 µM | 0.0036 µM |
| CCOc1ccc(C(=O)Nc2ccc([C@@H]3CNCCO3)c(F)c2)cn1 [Example 85, (R)-6-Ethoxy-N-(3-fluoro-4-(morpholin-2-yl)phenyl)nicotinamide hydrochloride] | 0.0067 µM | 0.0033 µM |
| O=C(Nc1ccc([C@@H]2CNCCO2)c(F)c1)c1cnn(-c2ccc(OC(F)F)cc2)c1 [Example 86, (R)-1-(4-(Difluoromethoxy)phenyl)-N-(3-fluoro-4-(morpholin-2-yl)phenyl)-1H-pyrazole-4-carboxamide hydrochloride] | 0.0007 µM | 0.0023 µM |
| O=C(Nc1ccc([C@H]2CNCCO2)c(F)c1)c1ccnc(C(F)(F)F)c1 [Example 87, (S)—N-(3-Fluoro-4-(morpholin-2-yl)phenyl)-2-(trifluoromethyl)isonicotinamide hydrochloride] | 0.0202 µM | 0.0105 µM |
| CCOc1cc(C(=O)Nc2ccc([C@H]3CNCCO3)c(F)c2)ccn1 [Example 88, (S)-2-Ethoxy-N-(3-fluoro-4-(morpholin-2-yl)phenyl)isonicotinamide hydrochloride] | 0.0458 µM | 0.0034 µM |
| CCOc1ccc(C(=O)Nc2ccc([C@H]3CNCCO3)c(F)c2)cn1 [Example 89, (S)-6-Ethoxy-N-(3-fluoro-4-(morpholin-2-yl)phenyl)nicotinamide hydrochloride] | 0.0254 µM | 0.0024 µM |
| CCOc1cc(C(=O)Nc2ccc([C@@H]3CNCCO3)c(Cl)c2)ccn1 [Example 91, (R)—N-(3-Chloro-4-(morpholin-2-yl)phenyl)-2-ethoxyisonicotinamide hydrochloride] | 0.003 µM | 0.0053 µM |
| CCOc1ccc(C(=O)Nc2ccc([C@@H]3CNCCO3)c(Cl)c2)cn1 [Example 92, (R)—N-(3-Chloro-4-(morpholin-2-yl)phenyl)-6-ethoxynicotinamide hydrochloride] | 0.0045 µM | 0.0048 µM |
| O=C(Nc1ccc([C@@H]2CNCCO2)c(Cl)c1)c1cnn(-c2ccc(OC(F)F)cc2)c1 [Example 93, (R)—N-(3-Chloro-4-(morpholin-2-yl)phenyl)-1-(4-(difluoromethoxy)phenyl)-1H-pyrazole-4-carboxamide hydrochloride] | 0.0012 µM | 0.0005 µM |
